# Assay results taken from PubChem BioAssay (NCI).
#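 Cells were grown in 96-well plates and exposed to each compound for 48 hours at five concentrations; endpoints were interpolated linearly between bracketing concentrations, or set to the highest concentration if not reached. GI50 is the concentration that inhibits growth by half. The concentration for full growth arrest is given as TGI.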
# What was measured:
# Test in all cases: DTP human tumour cell line panel, 48 h
# [1] = test system: K-562 leukemia
# [2] = test system: OVCAR-8 ovarian
# [3] = test system: M14 melanoma
# [4] = test system: SN12C renal
# [5] = test system: A498 renal
# [6] = test system: HS 578T breast
# [7] = test system: SW-620 colon
# [8] = test system: DU-145 prostate
# [9] = test system: SF-539 CNS
# [10] = test system: SK-MEL-5 melanoma
# [11] = test system: UO-31 renal
# [12] = test system: TK-10 renal
# [13] = test system: MOLT-4 leukemia
# [14] = test system: RXF 393 renal
# [15] = test system: SF-268 CNS
# [16] = test system: LOX IMVI melanoma
# [17] = test system: HOP-62 NSCLC
# [18] = test system: NCI-H460 lung
# [19] = test system: NCI-H522 lung
# [20] = test system: SR leukemia
# [21] = test system: KM12 colon
# [22] = test system: MDA-MB-231 breast
# [23] = test system: NCI/ADR-RES ovarian
# [24] = test system: SK-OV-3 ovarian
# [25] = test system: SNB-75 CNS
# [26] = test system: EKVX NSCLC
# [27] = test system: OVCAR-4 ovarian
# [28] = test system: MALME-3M melanoma
# [29] = test system: UACC-257 melanoma
# [30] = test system: MDA-MB-435
# [31] = test system: HT29 colon
# [32] = test system: NCI-H226 lung
# [33] = test system: ACHN renal
# [34] = test system: T-47D breast
# [35] = test system: SF-295 CNS
# [36] = test system: U251 CNS
# [37] = test system: HCT-15 colon
# [38] = test system: A549 NSCLC
# [39] = test system: HCC-2998 colon
# [40] = test system: HOP-92 NSCLC
# [41] = test system: SNB-19 CNS
# [42] = test system: MDA-MB-468 breast
# [43] = test system: NCI-H23 lung
# [44] = test system: IGROV1 ovarian
# [45] = test system: UACC-62 melanoma
# [46] = test system: PC-3 prostate
# [47] = test system: BT-549 breast
# [48] = test system: HCT-116 colon
# [49] = test system: SK-MEL-2 melanoma
# [50] = test system: OVCAR-5 ovarian
# [51] = test system: CAKI-1 renal
# [52] = test system: MCF7 breast
# [53] = test system: CCRF-CEM leukemia
# [54] = test system: COLO 205 colon
# [55] = test system: HL-60(TB) leukemia
# [56] = test system: OVCAR-3 ovarian
# [57] = test system: 786-0 renal
# [58] = test system: RPMI-8226 leukemia
# [59] = test system: SK-MEL-28 melanoma
compound,measurement,setting,value
CN1CCN(c2ccc(Nc3nc(NCCCNC(=O)C4CCCCC4)c4sccc4n3)cc2)CC1,GI50,[1],2.72 µM
same,TGI,[1],47 µM
same,GI50,[2],16 µM
same,TGI,[2],36.7 µM
same,GI50,[3],4.23 µM
same,TGI,[3],16 µM
same,GI50,[4],14.2 µM
same,TGI,[4],29.4 µM
same,GI50,[5],22 µM
same,TGI,[5],37.7 µM
same,GI50,[6],12.8 µM
same,TGI,[6],36.2 µM
same,GI50,[7],17.3 µM
same,TGI,[7],36.4 µM
same,GI50,[8],14.9 µM
same,TGI,[8],30.5 µM
same,GI50,[9],3.15 µM
same,TGI,[9],12.8 µM
same,GI50,[10],8.82 µM
same,TGI,[10],21 µM
same,GI50,[11],11.9 µM
same,TGI,[11],24.6 µM
same,GI50,[12],24.6 µM
same,TGI,[12],51.7 µM
same,GI50,[13],3.19 µM
same,TGI,[13],20.8 µM
same,GI50,[14],5.49 µM
same,TGI,[14],20 µM
same,GI50,[15],10.4 µM
same,TGI,[15],40.7 µM
same,GI50,[16],10.7 µM
same,TGI,[16],23.1 µM
same,GI50,[17],18.2 µM
same,TGI,[17],36.3 µM
same,GI50,[18],14.6 µM
same,TGI,[18],30.8 µM
same,GI50,[19],13 µM
same,TGI,[19],27 µM
same,GI50,[20],2.13 µM
same,TGI,[20],6.3 µM
same,GI50,[21],19.4 µM
same,TGI,[21],44.9 µM
same,GI50,[22],13.2 µM
same,TGI,[22],30.8 µM
same,GI50,[23],21.1 µM
same,TGI,[23],54.5 µM
same,GI50,[24],23.4 µM
same,TGI,[24],59.2 µM
same,GI50,[25],11.2 µM
same,TGI,[25],24.7 µM
same,GI50,[26],15.8 µM
same,TGI,[26],33.9 µM
same,GI50,[27],15.7 µM
same,TGI,[27],57.7 µM
same,GI50,[28],7.31 µM
same,TGI,[28],19.8 µM
same,GI50,[29],3.61 µM
same,TGI,[29],14.9 µM
same,GI50,[30],15.6 µM
same,TGI,[30],30.8 µM
same,GI50,[31],4.28 µM
same,TGI,[31],17 µM
same,GI50,[32],12.6 µM
same,TGI,[32],26.3 µM
same,GI50,[33],15.6 µM
same,TGI,[33],35.1 µM
same,GI50,[34],11.4 µM
same,TGI,[34],37.9 µM
same,GI50,[35],12.9 µM
same,TGI,[35],26.3 µM
same,GI50,[36],4.64 µM
same,TGI,[36],19.9 µM
same,GI50,[37],5.77 µM
same,TGI,[37],25.6 µM
same,GI50,[38],20.7 µM
same,TGI,[38],80.8 µM
same,GI50,[39],13.8 µM
same,TGI,[39],26.9 µM
same,GI50,[40],10.6 µM
same,TGI,[40],34.3 µM
same,GI50,[41],22.1 µM
same,TGI,[41],47.1 µM
same,GI50,[42],2.96 µM
same,TGI,[42],17.2 µM
same,GI50,[43],14.1 µM
same,TGI,[43],29.1 µM
same,GI50,[44],14 µM
same,TGI,[44],30.8 µM
same,GI50,[45],15.1 µM
same,TGI,[45],28.6 µM
same,GI50,[46],12.4 µM
same,TGI,[46],42.2 µM
same,GI50,[47],13.3 µM
same,TGI,[47],27.3 µM
same,GI50,[48],3.98 µM
same,TGI,[48],18.5 µM
same,GI50,[49],18.7 µM
same,TGI,[49],33.6 µM
same,GI50,[50],16.1 µM
same,TGI,[50],34.6 µM
same,GI50,[51],14.5 µM
same,TGI,[51],30.5 µM
same,GI50,[52],10 µM
same,TGI,[52],24 µM
same,GI50,[53],3.77 µM
same,TGI,[53],37.6 µM
same,GI50,[54],17.7 µM
same,TGI,[54],38.2 µM
same,GI50,[55],4.55 µM
same,TGI,[55],23.3 µM
same,GI50,[56],16.2 µM
same,TGI,[56],33.5 µM
same,GI50,[57],10.8 µM
same,TGI,[57],26.4 µM
same,GI50,[58],3.92 µM
same,TGI,[58],19.9 µM
same,GI50,[59],6.24 µM
same,TGI,[59],19.5 µM
